In test [1] the target is T1, FAAH (Homo sapiens, UniProt O00519).
T1 sequence (O00519 1-579): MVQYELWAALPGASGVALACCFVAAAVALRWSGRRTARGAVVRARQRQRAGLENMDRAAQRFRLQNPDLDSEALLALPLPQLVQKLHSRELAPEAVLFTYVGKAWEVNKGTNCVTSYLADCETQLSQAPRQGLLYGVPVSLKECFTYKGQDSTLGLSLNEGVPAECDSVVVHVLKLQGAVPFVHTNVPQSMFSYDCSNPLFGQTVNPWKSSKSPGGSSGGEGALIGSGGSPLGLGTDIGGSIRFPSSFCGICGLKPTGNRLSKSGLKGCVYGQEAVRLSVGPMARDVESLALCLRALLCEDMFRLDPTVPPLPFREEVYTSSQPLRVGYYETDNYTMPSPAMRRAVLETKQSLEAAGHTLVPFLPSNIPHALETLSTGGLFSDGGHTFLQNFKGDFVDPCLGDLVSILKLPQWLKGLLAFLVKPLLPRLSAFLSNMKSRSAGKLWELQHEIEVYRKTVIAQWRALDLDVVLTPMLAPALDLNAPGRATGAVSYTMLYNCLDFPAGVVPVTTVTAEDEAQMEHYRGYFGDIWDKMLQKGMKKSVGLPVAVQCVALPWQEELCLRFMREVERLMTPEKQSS
In words: Assay Method 1: FAAH assay, 3H-anandamide hydrolysis in homogenate of cells transfected with human FAAH. Type of test: biochemical. Set-up: expressed in transfected cells; crude homogenate (T84 cell pellets named as alternative). The following applies: cell homogenate, 3H-AEA 80 nM, 1 h at rt, average of results. On the procedure: A. Transfection of Cells with Human FAAH
(§1) A 10-cm tissue culture dish with a confluent monolayer of SK-N-MC cells was split 2 days (d) prior to transfection. Using sterile technique, the media was removed and the cells were detached from the dish by the addition of trypsin. One fifth of the cells were then placed onto a new 10-cm dish. Cells were grown in a 37° C. incubator with 5% CO2 in Minimal Essential Media Eagle with 10% Fetal Bovine Serum. After 2 d, cells were approximately 80% confluent. These cells were removed from the dish with trypsin and pelleted in a clinical centrifuge. The pellet was re-suspended in 400 μL complete media and transferred to an electroporation cuvette with a 0.4 cm gap between the electrodes. Supercoiled human FAAH cDNA (1 μg) was added to the cells and mixed. The voltage for the electroporation was set at 0.25 kV, and the capacitance was set at 960 After electroporation, the cells were diluted into complete media (10 mL) and plated onto four 10-cm dishes. Because of the variability in the efficiency of electroporation, four different concentrations of cells were plated. The ratios used were 1:20, 1:10, and 1:5, with the remainder of the cells being added to the fourth dish. The cells were allowed to recover for 24 h before adding the selection media (complete media with 600 μg/mL G418). After 10 d, dishes were analyzed for surviving colonies of cells. Dishes with well-isolated colonies were used. Cells from individual colonies were isolated and tested.
(§2) T84 frozen cell pellets or transfected SK-N-MC cells (contents of 1×15 cm culture dishes) were homogenized in 50 mL of FAAH assay buffer (125 mM Tris, 1 mM EDTA, 0.2% Glycerol, 0.02% Triton X-100, 0.4 mM Hepes, pH 9). The assay mixture consisted of 50 μL of the cell homogenate, 10 μL of the test compound, and 40 μL of anandamide [1-^3H-ethanolamine] (^3H-AEA, Perkin-Elmer, 10.3 Ci/mmol), which was added last, for a final tracer concentration of 80 nM. The reaction mixture was incubated at rt for 1 h. During the incubation, 96-well Multiscreen filter plates (catalog number MAFCNOB50; Millipore, Bedford, Mass., USA) were loaded with 25 μL of activated charcoal (Multiscreen column loader, catalog number MACL09625, Millipore) and washed once with 100 μL of MeOH. Also during the incubation, 96-well DYNEX MicroLite plates (catalog number NL510410) were loaded with 100 μL of MicroScint40 (catalog number 6013641, Packard Bioscience, Meriden, Conn., USA). After the 1 h incubation, 60 μL of the reaction mixture were transferred to the charcoal plates, which were then assembled on top of the DYNEX plates using Centrifuge Alignment Frames (catalog number MACF09604, Millipore). The unbound labeled ethanolamine was centrifuged through to the bottom plate (5 min at 2000 rpm), which was preloaded with the scintillant, as described above. The plates were sealed and left at rt for 1 h before counting on a Hewlett Packard TopCount.
(§3) Results for compounds tested in these assays are summarized in Table 1, as an average of results obtained. Compounds were tested in the free base or trifluoroacetic acid salt form. Compounds tested in the trifluoroacetic acid salt form are indicated as such by a “*” designation after the example number. Where activity is shown as greater than (>) a particular value, the value is the solubility limit of the compound in the assay medium or the highest concentration tested in the assay.

Test [2] has as its target T2, rat FAAH (Rattus norvegicus, UniProt P97612).
T2 construct: expressed in transfected cells; crude homogenate
T2 sequence (P97612 1-579): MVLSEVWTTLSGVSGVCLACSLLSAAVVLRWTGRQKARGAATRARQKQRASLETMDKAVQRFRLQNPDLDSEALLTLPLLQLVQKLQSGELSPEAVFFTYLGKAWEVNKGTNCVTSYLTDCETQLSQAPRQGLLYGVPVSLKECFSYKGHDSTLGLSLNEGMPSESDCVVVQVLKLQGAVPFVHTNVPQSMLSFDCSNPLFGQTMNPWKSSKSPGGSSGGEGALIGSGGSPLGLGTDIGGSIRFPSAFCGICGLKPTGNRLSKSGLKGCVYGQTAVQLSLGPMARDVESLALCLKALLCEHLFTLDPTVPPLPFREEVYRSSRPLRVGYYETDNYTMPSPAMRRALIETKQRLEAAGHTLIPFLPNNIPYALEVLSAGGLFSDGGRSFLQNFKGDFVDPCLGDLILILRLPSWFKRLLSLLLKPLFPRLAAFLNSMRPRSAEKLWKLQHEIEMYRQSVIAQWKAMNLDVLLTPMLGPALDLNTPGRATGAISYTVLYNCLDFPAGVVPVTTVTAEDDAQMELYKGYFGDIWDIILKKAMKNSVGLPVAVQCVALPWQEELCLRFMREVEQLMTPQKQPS
In words: Assay Method 2: FAAH assay, 3H-anandamide hydrolysis in homogenate of cells transfected with rat FAAH. Type of test: biochemical. The following applies: cell homogenate, 3H-AEA 80 nM, 1 h at rt, average of results. The protocol: A. Transfection of Cells with Rat FAAH
as §1, with “rat” for “human”, “960 μF.” for “960”
as §2, §3

Counter-ions that a name gives are not always drawn.

As to `O=C(Nc1cccnc1)N1CC(COc2cccc(OCc3ccccc3)c2)C1` [Example 23, 3-(3-Benzyloxy-phenoxymethyl)-azetidine-1-carboxylic acid pyridin-3-ylamide], the IC50 – broadly, the concentration that gives 50% inhibition – in test [1] was determined as 300 nM; in test [2] it was 940 nM.

With `C#Cc1cccc(OCCC2CN(C(=O)Nc3cccnc3)C2)c1` [Example 37, 3-[2-(3-Ethynyl-phenoxy)-ethyl]-azetidine-1-carboxylic acid pyridin-3-ylamide, trifluoroacetate salt], the IC50 was determined as 140 nM in test [1] and 820 nM in test [2].

Turning to `O=C(Nc1cnccc1Cl)N1CCC(CCOc2cccc(Oc3ccc(Cl)cc3)c2)C1` (stereo not drawn) [Example 64, 3-{2-[3-(4-Chloro-phenoxy)-phenoxy]-ethyl}-pyrrolidine-1-carboxylic acid (4-chloro-pyridin-3-yl)-amide], the IC50 came to 63 nM in test [1] and 73 nM in test [2].

As to `O=C(Nc1cnccc1Cl)N1CC[C@H](COc2cccc(Oc3ccc(Cl)cc3)c2)C1` [Example 55, (3S)-3-[3-(4-Chloro-phenoxy)-phenoxymethyl]-pyrrolidine-1-carboxylic acid (4-chloro-pyridin-3-yl)-amide], the IC50 was 16 nM in test [1] and 6 nM in test [2].

For the compound `O=C(Nc1cccnc1)N1CC(CCOc2ccc(Cl)c(C(F)(F)F)c2)C1` [Example 45, 3-[2-(4-Chloro-3-trifluoromethyl-phenoxy)-ethyl]-azetidine-1-carboxylic acid pyridin-3-ylamide], the IC50 was 700 nM in test [1] and 43 nM in test [2].

For `CS(=O)(=O)c1ccc(Oc2cccc(OCC3CN(C(=O)Nc4cccnc4)C3)c2)cc1` [Example 24, 3-[3-(4-Methanesulfonyl-phenoxy)-phenoxymethyl]-azetidine-1-carboxylic acid pyridin-3-ylamide], the IC50 came to 58 nM in test [1] and 380 nM in test [2].

As for `O=C(Nc1cnccc1Cl)N1CC(CCOCc2ccc(Cl)c(Cl)c2)C1` [Example 67, 3-[2-(3,4-Dichloro-benzyloxy)-ethyl]-azetidine-1-carboxylic acid (4-chloro-pyridin-3-yl)-amide], the IC50 was 39 nM in test [1] and 84 nM in test [2].

On to `CS(=O)(=O)c1ccc(Oc2cccc(OCCC3CN(C(=O)Nc4cccnc4)C3)c2)cc1` [Example 27, 3-{2-[3-(4-Methanesulfonyl-phenoxy)-phenoxy]-ethyl}-azetidine-1-carboxylic acid pyridin-3-ylamide], for which the IC50 in test [1] was 15 nM; in test [2], 480 nM.

Regarding `C#Cc1cccc(OCC2CN(C(=O)Nc3cccnc3)C2)c1` [Example 11, 3-(3-Ethynyl-phenoxymethyl)-azetidine-1-carboxylic acid pyridin-3-ylamide], the results for the IC50 in test [1] and in test [2] were 370 nM and 1600 nM, respectively.

For the compound `O=C(Nc1cccnc1)N1CCC(CCOc2ccccc2)C1` (stereo not drawn) [Example 54, 3-(2-Phenoxy-ethyl)-pyrrolidine-1-carboxylic acid pyridin-3-ylamide], the IC50 in test [1] and in test [2] was more than 10000 nM in each case.

As to `O=C(Nc1cccnc1)N1CC(COc2cccc(Oc3ccc(Cl)cc3)c2)C1` [Example 26, 3-[3-(4-Chloro-phenoxy)-phenoxymethyl]-azetidine-1-carboxylic acid pyridin-3-ylamide], the IC50 in test [1] stood at 120 nM; in test [2], 200 nM.

As to `O=C(Nc1cccnc1)N1CC(COc2ccc(Cl)c(Cl)c2)C1` [Example 21, 3-(3,4-Dichloro-phenoxymethyl)-azetidine-1-carboxylic acid pyridin-3-ylamide], the values for the IC50 in test [1] and in test [2] were 1000 nM and 530 nM, respectively.

Take `O=C(Nc1cccnc1)N1CC(CCOCc2ccccc2)C1` [Example 69, 3-(2-Benzyloxy-ethyl)-azetidine-1-carboxylic acid pyridin-3-ylamide]: the IC50 in test [2] is more than 10000 nM.

In test [1], `O=C(Nc1cnccc1Cl)N1CC(CCOCc2ccccc2)C1` [Example 70, 3-(2-Benzyloxy-ethyl)-azetidine-1-carboxylic acid (4-chloropyridin-3-yl)-amide] gave an IC50 of 936 nM.

`O=C(Nc1cccc2nonc12)N1CCC(Cc2ccc3c(c2)OC(F)(F)O3)C1` (stereo not drawn) [Example 73, N-2,1,3-Benzoxadiazol-4-yl-3-[(2,2-difluoro-1,3-benzodioxol-5-yl)methyl]pyrrolidine-1-carboxamide] displayed an IC50 in test [1] of more than 10000 nM.

In test [1], `O=C(Nc1cccnc1)N1CCC(CCOc2ccc(Cl)c(Cl)c2)C1` (stereo not drawn) [Example 53, 3-[2-(3,4-Dichloro-phenoxy)-ethyl]-pyrrolidine-1-carboxylic acid pyridin-3-ylamide] gave an IC50 of 6000 nM.

In test [1], `O=C(Nc1cnccc1Cl)N1CCC(CCOc2ccc(OC(F)(F)F)cc2)C1` (stereo not drawn) [Example 62, 3-[2-(4-Trifluoromethoxy-phenoxy)-ethyl]-pyrrolidine-1-carboxylic acid (4-chloro-pyridin-3-yl)-amide] showed an IC50 of 1300 nM.

In test [1], `O=C(Nc1cccnc1)N1CC(CCOc2ccc(OC(F)(F)F)cc2)C1` [Example 30, 3-[2-(4-Trifluoromethoxy-phenoxy)-ethyl]-azetidine-1-carboxylic acid pyridin-3-ylamide] showed an IC50 of more than 10000 nM.

Values taken from US8901111B2, “Aryl-substituted heterocyclic urea modulators of fatty acid amide hydrolase” (Janssen Pharmaceutica NV, priority 2009, dated 2014).
